Earlier results as cited in patent US20100104643A1, “PHARMACEUTICAL COMPOSITIONS” (ZYSIS LIMITED, priority 2007, published 2010).

Columns and labels:
[1] = for dose-concentration relationship: plasma concentrations
[2] = trimipramine antidepressant treatment

SMILES: CNCC(C)CN1c2ccccc2CCc2ccccc21 (stereo not drawn) [desmethyltrimipramine]
- dose-concentration relationship [1]: deviation from linearity within the therapeutic dose range
- upper limit of the therapeutic trough plasma concentrations [2]: 0.38 mg/L

SMILES: CC(CN(C)C)CN1c2ccccc2CCc2ccccc21 (stereo not drawn) [trimipramine, 10,11-Dihydro-5-(3-dimethylamino-2-methylpropyl)-5H-dibenz(b,f) azepine]
- bioavailability difference between poor and ultra-fast metabolizers ([1]; CYP2D6 genotypes): 6 fold
- mean systemic clearances, ultrarapid metabolizers of CYP2D6 substrates versus poor metabolizers ([1]; higher in ultrarapid than in poor metabolizers): 2.5 fold
- dose-concentration relationship [1]: linear dose-concentration relationship for doses up to 150 mg
- total oral clearance, low extreme ([1]; poor metabolizer group): 3.5 L/h
- difference in total oral clearance ([1]; poor versus ultrarapid CYP2D6 metabolizers): about 15 fold
- total oral clearance, high extreme ([1]; ultrarapid metabolizer group): 712.6 L/h
- upper limit of the therapeutic trough plasma concentrations [2]: 0.24 mg/L
